Here are results for twelve molecules from publication PMC12118337, “Development of a Peptide Inhibitor Targeting the C‐SH2 Domain of the SHP2 Phosphatase” (Chembiochem, 2025).

Each structure is given as a SMILES string. Non-standard residues stand in square brackets, D forms with d. Residues, ends and D or L forms follow the SMILES beside them. *: point of attachment. 5FAM = O=C1OC2(c3ccc(O)cc3Oc3cc(O)ccc32)c2ccc(C(=O)*)cc21; pY = N[C@@H](Cc1ccc(OP(=O)(O)O)cc1)C(=O)O; X1 = O=C(O)C(C(=O)O)*

One test concerns the target T1, SHP2 C‐SH2 domain (Homo sapiens, UniProt Q06124).
T1 construct: SHP2 N-SH2 domain (1–105), C-SH2 domain (106–220), PTP domain (224–541) and; His6 (pETM22 vector) (N, cleaved yes); made in house; host or cells: E. coli BL21(DE3)
T1 sequence (Q06124 106-220): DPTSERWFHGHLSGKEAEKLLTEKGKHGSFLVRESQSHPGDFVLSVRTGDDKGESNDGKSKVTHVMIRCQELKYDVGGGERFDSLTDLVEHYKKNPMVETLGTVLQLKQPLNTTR
As to the kind of experiment: Fluorescence polarization (FP) binding assay, SHP2 C-SH2 domain. Particulars: 100 nM FAM-labelled peptide; for Kd: read-out: K D ± SEM, C‐SH2 (FP). The method, then: (§1) buffer and stored in 5 mL binding buffer at 4°C. His-tagged 3C protease (0.5 mg; EMBL) was added to the pooled eluted fractions and dialysed using Spectra Por Dialysis Tubing (MWCO 6-8 kDa, 23 mm; Spectrum Labs) in 1 L of binding buffer at 4°C for 3 hours, then overnight in fresh buffer. A new column was prepared by loading 2 mL Ni-NTA Agarose (Invitrogen) as a 50% slurry in EtOH. The column was washed with 10 mL H2O to remove the EtOH and equilibrated with 10 mL binding buffer. The protein/3C protease mixture was loaded onto the column and incubated for 1 hour at 4°C on a rocker. The flow through containing the protein was collected, the column was washed with 100 mL binding buffer and the 3C protease was eluted with 5 mL elution buffer. Protein purification was monitored by SDS-PAGE using NuPAGE 4-12% Bis-Tris Protein Gels (Invitrogen) run in MOPS buffer (50 mM MOPS, 50 mM Tris-HCl pH 7.7, 1 mM EDTA, 0.1% SDS) followed by Coomassie staining using Coomassie Brilliant Blue (Roth). The purified protein was dialysed into the final storage buffer (50 mM HEPES pH 7.5, 150 mM NaCl, 2 mM DTT, 20% glycerol). Aliquots were prepared and stored at -80°C until required. […]
(§2) 4. Fluorescence polarization
(§3) Fluorescence polarization (FP) was used to measure the binding of FAM-labelled peptides to the SHP2 C-SH2, SHP2 N-SH2, SHP2 PTP, CSK SH2 or Src SH2 domains. Each peptide was added to increasing concentrations of SHP2 C-SH2, SHP2 N-SH2, SHP2 PTP, CSK SH2 or Src SH2 protein in FP buffer (50 mM HEPES pH 7.5, 150 mM NaCl, 1 mM EDTA, 0.05% Tween 20) to give a final peptide […]
(§4) concentration of 100 nM in a final volume of 200 µL. For baseline subtraction, each peptide was added to FP buffer, instead of protein, with a final peptide concentration of 100 nM in a final volume of 200 µL. Samples were mixed gently then 3 x 60 µL of each sample was transferred into triplicate wells in a 96-well plate (OptiPlate-96 F Black; PerkinElmer). The FP was immediately measured on a Synergy H1 Microplate Reader (BioTek) with the excitation and emission monitored at 485 nm and 528 nm, respectively, over 30 minutes. FP values were automatically calculated by the Gen5 3.03 (BioTek) software associated with the microplate reader. Data were analysed in Excel 2016 by subtracting baseline values from FP values at 10 minutes. Data were then further analysed in GraphPad Prism 6 by plotting the baseline subtracted FP values against the protein concentration and fitting the data to a variable slope model of non-linear regression to obtain the KD values. Data are from three independent experiments, each performed in technical triplicates.
(§5) 5. Isothermal titration calorimetry […]
(§6) Analysis Software (Malvern Panalytical). For the data analysis, a 1:1 binding stoichiometry between the Ac-ITSM(pTyr) and SH2 domain was assumed. ITC measurements were performed once.
For orientation: Polarisation of emitted light reports the rotation of a fluorescent probe.

A further test addresses T2, SHP2 N‐SH2 domain (Homo sapiens, UniProt Q06124).
T2 construct: SHP2 N-SH2 domain (1–105), C-SH2 domain (106–220), PTP domain (224–541) and; His6 (pETM22 vector) (N, cleaved yes); made in house; host or cells: E. coli BL21(DE3)
T2 sequence (Q06124 1-105): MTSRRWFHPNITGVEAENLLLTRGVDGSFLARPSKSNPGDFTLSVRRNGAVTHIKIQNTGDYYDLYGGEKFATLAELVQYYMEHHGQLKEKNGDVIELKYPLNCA
As to the kind of experiment: Fluorescence polarization (FP) binding assay, SHP2 N-SH2 domain. As to conditions: 100 nM FAM-labelled peptide, increasing N-SH2 protein, 50 mM HEPES pH 7.5, 150 mM NaCl, 1 mM EDTA, 0.05% Tween 20, FP at 10 min, three independent experiments in technical triplicates, read-out: K D ± SEM, N‐SH2 (FP). The method, then: as §1, §2, §3, §4, §5, §6

The mark [1] stands for this setting: increasing C-SH2 protein, 50 mM HEPES pH 7.5, 150 mM NaCl, 1 mM EDTA, 0.05% Tween 20, FP at 10 min, three independent experiments in technical triplicates.

Take `CC[C@H](C)[C@H](NC(=O)[C@@H](NC(=O)[C@H](C)NC(=O)[C@H](Cc1ccc(OP(=O)(O)O)cc1)NC(=O)[C@H](CCC(=O)O)NC(=O)[C@@H](NC(=O)[C@H](CCC(N)=O)NC(=O)[C@H](CCC(=O)O)NC(=O)c1ccc2c(c1)C(=O)OC21c2ccc(O)cc2Oc2cc(O)ccc21)[C@@H](C)O)[C@@H](C)O)C(=O)N[C@@H](CCCCN)C(=O)N[C@@H](Cc1ccccc1)C(=O)N1CCC[C@H]1C(N)=O` [compound 9] (5FAM-EQTE[pY]ATIKFP-NH2): the results for the Kd on SHP2 C‐SH2 domain (setting [1]) and on SHP2 N‐SH2 domain were 72 ± 2.61 nM and over 2000 nM, respectively.
Turning to `CC[C@H](C)[C@H](NC(=O)[C@@H](NC(=O)[C@H](C)NC(=O)[C@H](Cc1ccc(OP(=O)(O)O)cc1)NC(=O)[C@H](CCC(=O)O)NC(=O)[C@@H](NC(=O)[C@H](CCC(N)=O)NC(=O)[C@H](CCC(=O)O)NC(=O)c1ccc2c(c1)C(=O)OC21c2ccc(O)cc2Oc2cc(O)ccc21)[C@@H](C)O)[C@@H](C)O)C(=O)N[C@@H](C)C(=O)N[C@@H](Cc1ccccc1)C(=O)N1CCC[C@H]1C(N)=O` [compound 7] (5FAM-EQTE[pY]ATIAFP-NH2), the Kd is over 2000 nM at SHP2 C‐SH2 domain (setting [1]) and 1080 ± 84 nM at SHP2 N‐SH2 domain.
As for `CC[C@H](C)[C@H](NC(=O)[C@@H](NC(=O)[C@H](C)NC(=O)[C@H](Cc1ccc(OP(=O)(O)O)cc1)NC(=O)[C@H](CCC(=O)O)NC(=O)[C@@H](NC(=O)[C@H](CCC(N)=O)NC(=O)[C@H](CCC(=O)O)NC(=O)c1ccc2c(c1)C(=O)OC21c2ccc(O)cc2Oc2cc(O)ccc21)[C@@H](C)O)[C@@H](C)O)C(=O)N[C@H](C(=O)N[C@@H](Cc1ccccc1)C(=O)N1CCC[C@H]1C(N)=O)C(C)C` [FAM‐ITSM(pTyr), reference compound] (5FAM-EQTE[pY]ATIVFP-NH2), the values for the Kd on SHP2 C‐SH2 domain (setting [1]) and on SHP2 N‐SH2 domain were 48.9 nM and 164 ± 19.5 nM, respectively.
Regarding `CC[C@H](C)[C@H](NC(=O)[C@@H](NC(=O)[C@H](C)NC(=O)[C@H](Cc1ccc(OP(=O)(O)O)cc1)NC(=O)[C@H](CCC(=O)O)NC(=O)[C@H](C)NC(=O)[C@H](CCC(N)=O)NC(=O)[C@H](CCC(=O)O)NC(=O)c1ccc2c(c1)C(=O)OC21c2ccc(O)cc2Oc2cc(O)ccc21)[C@@H](C)O)C(=O)N[C@H](C(=O)N[C@@H](Cc1ccccc1)C(=O)N1CCC[C@H]1C(N)=O)C(C)C` [peptide 3] (5FAM-EQAE[pY]ATIVFP-NH2), the Kd at SHP2 C‐SH2 domain (setting [1]) worked out at 135 ± 4.6 nM; at SHP2 N‐SH2 domain, 428 ± 25.1 nM.
On to `CC[C@H](C)[C@H](NC(=O)[C@@H](NC(=O)[C@H](C)NC(=O)[C@H](Cc1ccc(OP(=O)(O)O)cc1)NC(=O)[C@H](CCC(=O)O)NC(=O)[C@@H](NC(=O)[C@H](C)NC(=O)[C@H](CCC(=O)O)NC(=O)c1ccc2c(c1)C(=O)OC21c2ccc(O)cc2Oc2cc(O)ccc21)[C@@H](C)O)[C@@H](C)O)C(=O)N[C@H](C(=O)N[C@@H](Cc1ccccc1)C(=O)N1CCC[C@H]1C(N)=O)C(C)C` [peptide 2] (5FAM-EATE[pY]ATIVFP-NH2), for which the Kd is 51.3 ± 1.08 nM at SHP2 C‐SH2 domain (setting [1]) and 58 ± 4.6 nM at SHP2 N‐SH2 domain.
`CC(C)[C@H](NC(=O)[C@H](C)NC(=O)[C@@H](NC(=O)[C@H](C)NC(=O)[C@H](Cc1ccc(OP(=O)(O)O)cc1)NC(=O)[C@H](CCC(=O)O)NC(=O)[C@@H](NC(=O)[C@H](CCC(N)=O)NC(=O)[C@H](CCC(=O)O)NC(=O)c1ccc2c(c1)C(=O)OC21c2ccc(O)cc2Oc2cc(O)ccc21)[C@@H](C)O)[C@@H](C)O)C(=O)N[C@@H](Cc1ccccc1)C(=O)N1CCC[C@H]1C(N)=O` [compound 6] (5FAM-EQTE[pY]ATAVFP-NH2): the “K D ± SEM, C‐SH2 (FP)” value at SHP2 C‐SH2 domain (setting [1]) is recorded as “no binding”. Besides, at SHP2 N‐SH2 domain, the Kd was over 10000 nM.
Turning to `CC[C@H](C)[C@H](NC(=O)[C@@H](NC(=O)[C@H](C)NC(=O)[C@H](Cc1ccc(OP(=O)(O)O)cc1)NC(=O)[C@H](CCC(=O)O)NC(=O)[C@@H](NC(=O)[C@H](CCC(N)=O)NC(=O)[C@H](CCC(=O)O)NC(=O)c1ccc2c(c1)C(=O)OC21c2ccc(O)cc2Oc2cc(O)ccc21)[C@@H](C)O)[C@@H](C)O)C(=O)N[C@H](C(=O)N[C@@H](C)C(=O)N1CCC[C@H]1C(N)=O)C(C)C` [compound 8] (5FAM-EQTE[pY]ATIVAP-NH2), the Kd on SHP2 C‐SH2 domain (setting [1]) was 185 ± 30.8 nM; on SHP2 N‐SH2 domain, over 2000 nM.
As for `CC[C@H](C)[C@H](NC(=O)[C@H](C)NC(=O)[C@H](C)NC(=O)[C@H](Cc1ccc(OP(=O)(O)O)cc1)NC(=O)[C@H](CCC(=O)O)NC(=O)[C@@H](NC(=O)[C@H](CCC(N)=O)NC(=O)[C@H](CCC(=O)O)NC(=O)c1ccc2c(c1)C(=O)OC21c2ccc(O)cc2Oc2cc(O)ccc21)[C@@H](C)O)C(=O)N[C@H](C(=O)N[C@@H](Cc1ccccc1)C(=O)N1CCC[C@H]1C(N)=O)C(C)C` [compound 5] (5FAM-EQTE[pY]AAIVFP-NH2), the figures for the Kd on SHP2 C‐SH2 domain (setting [1]) and at SHP2 N‐SH2 domain were 126 ± 6.2 nM and 1140 ± 585 nM, respectively.
With `CC[C@H](C)[C@H](NC(=O)[C@@H](NC(=O)[C@H](C)NC(=O)[C@H](Cc1ccc(OP(=O)(O)O)cc1)NC(=O)[C@H](CCC(=O)O)NC(=O)[C@@H](NC(=O)[C@H](CCC(N)=O)NC(=O)c1ccc2c(c1)C(=O)OC21c2ccc(O)cc2Oc2cc(O)ccc21)[C@@H](C)O)[C@@H](C)O)C(=O)N[C@@H](CCCCN)C(=O)N[C@@H](Cc1ccc(O)cc1)C(=O)N1CCC[C@H]1C(N)=O` [compound 17] (5FAM-QTE[pY]ATIKYP-NH2), the values for the Kd at SHP2 C‐SH2 domain (setting [1]) and on SHP2 N‐SH2 domain were 116 ± 7.7 nM and over 3000 nM, respectively.
Consider `CC[C@H](C)[C@H](NC(=O)[C@@H](NC(=O)[C@H](C)NC(=O)[C@H](Cc1ccc(OC(C(=O)O)C(=O)O)cc1)NC(=O)[C@H](CCC(=O)O)NC(=O)[C@@H](NC(=O)[C@H](CCC(N)=O)NC(=O)[C@H](CCC(=O)O)NC(=O)c1ccc2c(c1)C(=O)OC21c2ccc(O)cc2Oc2cc(O)ccc21)[C@@H](C)O)[C@@H](C)O)C(=O)N[C@H](C(=O)N[C@@H](Cc1ccccc1)C(=O)N1CCC[C@H]1C(N)=O)C(C)C` [FAM‐ITSM(L‐OMT)] (5FAM-EQTEY(X1)ATIVFP-NH2), for which the “binding to the C‐SH2 domain, in words” value on SHP2 C‐SH2 domain is “retained binding”. Also, the Kd on SHP2 C‐SH2 domain (setting [1]) amounted to 257 ± 8.3 nM; at SHP2 N‐SH2 domain it was 1710 ± 105 nM.
As for `CC(C)[C@H](NC(=O)[C@@H](NC(=O)[C@H](C)NC(=O)[C@H](Cc1ccc(OP(=O)(O)O)cc1)NC(=O)[C@H](CCC(=O)O)NC(=O)[C@@H](NC(=O)[C@H](CCC(N)=O)NC(=O)[C@H](CCC(=O)O)NC(=O)c1ccc2c(c1)C(=O)OC21c2ccc(O)cc2Oc2cc(O)ccc21)[C@@H](C)O)[C@@H](C)O)C(=O)N[C@@H](CCCCN)C(=O)N[C@@H](Cc1ccccc1)C(=O)N1CCC[C@H]1C(N)=O` [compound 10] (5FAM-EQTE[pY]ATVKFP-NH2), the figures for the Kd on SHP2 C‐SH2 domain (setting [1]) and on SHP2 N‐SH2 domain were 209 ± 14.4 nM and over 3000 nM, respectively.
Turning to `CC[C@H](C)[C@H](NC(=O)[C@@H](NC(=O)[C@H](C)NC(=O)[C@H](Cc1ccc(OP(=O)(O)O)cc1)NC(=O)[C@H](CCC(=O)O)NC(=O)[C@@H](NC(=O)[C@H](CCC(N)=O)NC(=O)c1ccc2c(c1)C(=O)OC21c2ccc(O)cc2Oc2cc(O)ccc21)[C@@H](C)O)[C@@H](C)O)C(=O)N[C@@H](CCCCN)C(=O)N[C@@H](Cc1c[nH]c2ccccc12)C(=O)N1CCC[C@H]1C(N)=O` [compound 13] (5FAM-QTE[pY]ATIKWP-NH2), the Kd on SHP2 C‐SH2 domain (setting [1]) came out at 46.8 ± 1.29 nM; at SHP2 N‐SH2 domain it was 368 ± 40 nM.
